According to PubChem BioAssay (NCI):
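Method: 48-hour compound exposure of cells in 96-well plates, five concentrations, linear interpolation of endpoints. GI50 = concentration required for 50% inhibition of growth. TGI denotes the concentration required for complete inhibition of growth.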

Experiments:
Experiment in all cases: DTP human tumour cell line panel, 48 h
MDA-MB-231 breast = system: MDA-MB-231 breast
NCI-H23 lung = system: NCI-H23 lung
IGROV1 ovarian = system: IGROV1 ovarian
BT-549 breast = system: BT-549 breast
786-0 renal = system: 786-0 renal
OVCAR-3 ovarian = system: OVCAR-3 ovarian
LOX IMVI melanoma = system: LOX IMVI melanoma
NCI-H226 lung = system: NCI-H226 lung
HCC-2998 colon = system: HCC-2998 colon
HT29 colon = system: HT29 colon
SW-620 colon = system: SW-620 colon
UO-31 renal = system: UO-31 renal
SK-OV-3 ovarian = system: SK-OV-3 ovarian
SK-MEL-28 melanoma = system: SK-MEL-28 melanoma
U251 CNS = system: U251 CNS
SF-539 CNS = system: SF-539 CNS
CAKI-1 renal = system: CAKI-1 renal
NCI/ADR-RES ovarian = system: NCI/ADR-RES ovarian
RXF 393 renal = system: RXF 393 renal
HL-60(TB) leukemia = system: HL-60(TB) leukemia
A549 NSCLC = system: A549 NSCLC
MALME-3M melanoma = system: MALME-3M melanoma
SF-268 CNS = system: SF-268 CNS
NCI-H522 lung = system: NCI-H522 lung
TK-10 renal = system: TK-10 renal
MDA-MB-435 = system: MDA-MB-435
SNB-75 CNS = system: SNB-75 CNS
A498 renal = system: A498 renal
KM12 colon = system: KM12 colon
HOP-62 NSCLC = system: HOP-62 NSCLC
K-562 leukemia = system: K-562 leukemia
UACC-62 melanoma = system: UACC-62 melanoma
OVCAR-5 ovarian = system: OVCAR-5 ovarian
CCRF-CEM leukemia = system: CCRF-CEM leukemia
SN12C renal = system: SN12C renal
OVCAR-4 ovarian = system: OVCAR-4 ovarian
DU-145 prostate = system: DU-145 prostate
ACHN renal = system: ACHN renal
T-47D breast = system: T-47D breast
M14 melanoma = system: M14 melanoma
SK-MEL-2 melanoma = system: SK-MEL-2 melanoma
MCF7 breast = system: MCF7 breast
OVCAR-8 ovarian = system: OVCAR-8 ovarian
HCT-116 colon = system: HCT-116 colon
PC-3 prostate = system: PC-3 prostate
NCI-H460 lung = system: NCI-H460 lung
EKVX NSCLC = system: EKVX NSCLC
SNB-19 CNS = system: SNB-19 CNS
HOP-92 NSCLC = system: HOP-92 NSCLC
HS 578T breast = system: HS 578T breast
MOLT-4 leukemia = system: MOLT-4 leukemia
UACC-257 melanoma = system: UACC-257 melanoma
SK-MEL-5 melanoma = system: SK-MEL-5 melanoma
COLO 205 colon = system: COLO 205 colon
HCT-15 colon = system: HCT-15 colon
SF-295 CNS = system: SF-295 CNS
RPMI-8226 leukemia = system: RPMI-8226 leukemia

COc1ccc(-c2nc(C(=O)c3ccccc3)n(CC(=O)c3ccc(Cl)cc3)c2-c2ccc(OC)cc2)cc1
GI50 (MDA-MB-231 breast): > 100 µM | TGI (MDA-MB-231 breast): > 100 µM | GI50 (NCI-H23 lung): > 100 µM | TGI (NCI-H23 lung): > 100 µM | GI50 (IGROV1 ovarian): > 100 µM | TGI (IGROV1 ovarian): > 100 µM | GI50 (BT-549 breast): 85.6 µM | TGI (BT-549 breast): > 100 µM | GI50 (786-0 renal): > 100 µM | TGI (786-0 renal): > 100 µM | GI50 (OVCAR-3 ovarian): > 100 µM | TGI (OVCAR-3 ovarian): > 100 µM | GI50 (LOX IMVI melanoma): > 100 µM | TGI (LOX IMVI melanoma): > 100 µM | GI50 (NCI-H226 lung): > 100 µM | TGI (NCI-H226 lung): > 100 µM | GI50 (HCC-2998 colon): > 100 µM | TGI (HCC-2998 colon): > 100 µM | GI50 (HT29 colon): > 100 µM | TGI (HT29 colon): > 100 µM | GI50 (SW-620 colon): > 100 µM | TGI (SW-620 colon): > 100 µM | GI50 (UO-31 renal): > 100 µM | TGI (UO-31 renal): > 100 µM | GI50 (SK-OV-3 ovarian): > 100 µM | TGI (SK-OV-3 ovarian): > 100 µM | GI50 (SK-MEL-28 melanoma): > 100 µM | TGI (SK-MEL-28 melanoma): > 100 µM | GI50 (U251 CNS): > 100 µM | TGI (U251 CNS): > 100 µM | GI50 (SF-539 CNS): > 100 µM | TGI (SF-539 CNS): > 100 µM | GI50 (CAKI-1 renal): > 100 µM | TGI (CAKI-1 renal): > 100 µM | GI50 (NCI/ADR-RES ovarian): > 100 µM | TGI (NCI/ADR-RES ovarian): > 100 µM | GI50 (RXF 393 renal): > 100 µM | TGI (RXF 393 renal): > 100 µM | GI50 (HL-60(TB) leukemia): 46 µM | TGI (HL-60(TB) leukemia): > 100 µM | GI50 (A549 NSCLC): > 100 µM | TGI (A549 NSCLC): > 100 µM | GI50 (MALME-3M melanoma): > 100 µM | TGI (MALME-3M melanoma): > 100 µM | GI50 (SF-268 CNS): > 100 µM | TGI (SF-268 CNS): > 100 µM | GI50 (NCI-H522 lung): > 100 µM | TGI (NCI-H522 lung): > 100 µM | GI50 (TK-10 renal): > 100 µM | TGI (TK-10 renal): > 100 µM | GI50 (MDA-MB-435): > 100 µM | TGI (MDA-MB-435): > 100 µM | GI50 (SNB-75 CNS): > 100 µM | TGI (SNB-75 CNS): > 100 µM | GI50 (A498 renal): > 100 µM | TGI (A498 renal): > 100 µM | GI50 (KM12 colon): > 100 µM | TGI (KM12 colon): > 100 µM | GI50 (HOP-62 NSCLC): > 100 µM | TGI (HOP-62 NSCLC): > 100 µM | GI50 (K-562 leukemia): > 100 µM | TGI (K-562 leukemia): > 100 µM | GI50 (UACC-62 melanoma): > 100 µM | TGI (UACC-62 melanoma): > 100 µM | GI50 (OVCAR-5 ovarian): > 100 µM | TGI (OVCAR-5 ovarian): > 100 µM | GI50 (CCRF-CEM leukemia): > 100 µM | TGI (CCRF-CEM leukemia): > 100 µM | GI50 (SN12C renal): > 100 µM | TGI (SN12C renal): > 100 µM | GI50 (OVCAR-4 ovarian): > 100 µM | TGI (OVCAR-4 ovarian): > 100 µM | GI50 (DU-145 prostate): > 100 µM | TGI (DU-145 prostate): > 100 µM | GI50 (ACHN renal): > 100 µM | TGI (ACHN renal): > 100 µM | GI50 (T-47D breast): > 100 µM | TGI (T-47D breast): > 100 µM | GI50 (M14 melanoma): > 100 µM | TGI (M14 melanoma): > 100 µM | GI50 (SK-MEL-2 melanoma): > 100 µM | TGI (SK-MEL-2 melanoma): > 100 µM | GI50 (MCF7 breast): > 100 µM | TGI (MCF7 breast): > 100 µM | GI50 (OVCAR-8 ovarian): > 100 µM | TGI (OVCAR-8 ovarian): > 100 µM | GI50 (HCT-116 colon): > 100 µM | TGI (HCT-116 colon): > 100 µM | GI50 (PC-3 prostate): > 100 µM | TGI (PC-3 prostate): > 100 µM | GI50 (NCI-H460 lung): > 100 µM | TGI (NCI-H460 lung): > 100 µM | GI50 (EKVX NSCLC): > 100 µM | TGI (EKVX NSCLC): > 100 µM | GI50 (SNB-19 CNS): > 100 µM | TGI (SNB-19 CNS): > 100 µM | GI50 (HOP-92 NSCLC): > 100 µM | TGI (HOP-92 NSCLC): > 100 µM | GI50 (HS 578T breast): > 100 µM | TGI (HS 578T breast): > 100 µM | GI50 (MOLT-4 leukemia): > 100 µM | TGI (MOLT-4 leukemia): > 100 µM | GI50 (UACC-257 melanoma): > 100 µM | TGI (UACC-257 melanoma): > 100 µM | GI50 (SK-MEL-5 melanoma): > 100 µM | TGI (SK-MEL-5 melanoma): > 100 µM | GI50 (COLO 205 colon): > 100 µM | TGI (COLO 205 colon): > 100 µM | GI50 (HCT-15 colon): > 100 µM | TGI (HCT-15 colon): > 100 µM | GI50 (SF-295 CNS): > 100 µM | TGI (SF-295 CNS): > 100 µM | GI50 (RPMI-8226 leukemia): > 100 µM | TGI (RPMI-8226 leukemia): > 100 µM
